Key:
[1] = target: (Homo sapiens, UniProt P43220); assay: h-GLP-1 activity assay (cAMP HTRF, HEK293 cells with stable expression of human GLP-1); format: cell-based; details: relative EC50, 10 nM human GLP-1 set as 100% response, 30 min at 37° C.
Procedure, shortened: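 HEK293 cells stably expressing human GLP-1 receptor construct exposed to compound 30 min at 37 °C in buffer with 0.1% BSA and 0.5 mM IBMX; cAMP measured by HTRF against a cAMP standard curve. 10 nM human GLP-1 set as 100%; relative EC50 from 4-parameter fit.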

human OATP1B1 = target: T1, human OATP1B1 (Homo sapiens, UniProt Q9Y6L6); assay: OATP1B1 inhibition assay (HEK293 cells over-expressing human OATP1B1, substrate estradiol 17-β-D-glucuronide); format: cell-based; details: 30 min pre-incubation, 10 min coincubation with estradiol 17-β-D-glucuronide
T1 sequence (Q9Y6L6 1-691): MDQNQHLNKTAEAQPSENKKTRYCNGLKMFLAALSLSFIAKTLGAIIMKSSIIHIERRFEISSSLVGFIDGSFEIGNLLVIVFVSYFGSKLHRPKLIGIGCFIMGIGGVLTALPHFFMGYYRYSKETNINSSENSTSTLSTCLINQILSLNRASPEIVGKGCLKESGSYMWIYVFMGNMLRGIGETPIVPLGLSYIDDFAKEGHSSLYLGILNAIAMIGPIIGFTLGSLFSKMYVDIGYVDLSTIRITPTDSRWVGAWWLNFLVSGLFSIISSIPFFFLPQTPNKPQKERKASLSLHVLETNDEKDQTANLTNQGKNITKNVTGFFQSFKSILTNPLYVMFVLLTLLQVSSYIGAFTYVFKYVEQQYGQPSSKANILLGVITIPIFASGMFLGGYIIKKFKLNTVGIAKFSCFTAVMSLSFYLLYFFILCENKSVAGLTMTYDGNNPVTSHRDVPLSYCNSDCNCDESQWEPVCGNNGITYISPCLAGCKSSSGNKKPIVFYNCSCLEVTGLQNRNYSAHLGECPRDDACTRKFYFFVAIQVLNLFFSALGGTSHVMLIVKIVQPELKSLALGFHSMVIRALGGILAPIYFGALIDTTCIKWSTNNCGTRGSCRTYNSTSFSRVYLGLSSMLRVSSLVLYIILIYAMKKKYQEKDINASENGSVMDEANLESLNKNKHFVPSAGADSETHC
Method: HEK293 cells over-expressing human OATP1B1 were used for determining the inhibitory effect of compounds of the application on OATP1B1-mediated transportation. Cells were seeded at a density of 400,000 cells per well in 24-well plates. When reaching confluence of 80˜90%, cells were washed with pre-warmed assay buffer and then pre-incubated with serially diluted test compounds or negative control (NC) or positive inhibitor (PC, Rifampicin) for 30 min, followed by coincubation with the same test compound and OATP1B1 substrate estradiol 17-β-D-glucuronide for 10 min. Cells were washed with pre-cooled buffer, and lysed by freeze-thaw cycles. After extraction by mixture of […] of methanol, the substrate concentration was determined by LC-MS/MS, and protein concentration was determined by BCA method. The substrate transport velocity U is calculated as U=Clysate/(P*T), where Clysate is substrate concentration in lysate, P is protein concentration in lysate, and T is incubation time. Relative transport activity Y is calculated as Y=UTA/UNC. The IC50 value of the tested compounds was calculated by fitting Y to compound concentration using a 4-parameter non-linear regression routine in Prism.

[2] = Pharmacokinetics after oral gavage in fasted SD rats; format: in vivo; details: rat, 5 mg/kg, plasma
Method: Compounds of the present application were formulated in 10% DMSO/10%/Cremophor EL/15% PEG400/65% 100 mM Glycine-NaOH pH 10, and administered via oral gavage (P0) at the dosages of 5 or 10 mg per kilogram body weight in fasted SD rats. Plasma samples were collected at 0.25, 0.5, 1, 2, 4, 6, 8, and 24 hours post dosing. Compound concentration was determined by LC-MS and pharmacokinetics parameters were calculated by WinNonlin 8.2 using Non-Compartmental Analysis model.

Chain of (Homo sapiens, UniProt P43220) (P43220 24-463): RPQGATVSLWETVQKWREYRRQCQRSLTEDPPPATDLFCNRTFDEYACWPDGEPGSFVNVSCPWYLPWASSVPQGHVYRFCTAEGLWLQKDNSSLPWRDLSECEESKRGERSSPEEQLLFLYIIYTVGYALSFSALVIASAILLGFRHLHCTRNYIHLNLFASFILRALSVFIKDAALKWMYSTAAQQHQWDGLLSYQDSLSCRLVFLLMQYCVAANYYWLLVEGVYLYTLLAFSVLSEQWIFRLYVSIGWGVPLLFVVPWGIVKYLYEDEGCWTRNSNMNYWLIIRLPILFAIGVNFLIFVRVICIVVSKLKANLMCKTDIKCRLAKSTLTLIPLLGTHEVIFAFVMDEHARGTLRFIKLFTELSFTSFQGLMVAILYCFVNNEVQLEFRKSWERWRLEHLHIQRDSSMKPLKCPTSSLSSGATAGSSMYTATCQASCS

Structure (SMILES) | EC50 [1] [µM] | IC50 (human OATP1B1) [µM] | AUC [2] [ng·h/mL] | Cmax [2] [ng/mL] | bioavailability [2] [%]
Cc1cc(-n2nc3c(c2-n2ccn(-c4ccc5c(cnn5C)c4F)c2=O)[C@H](C)N(C(=O)c2cc4cc([C@@H]5CCOC(C)(C)C5)ccn4c2C2(c4noc(=O)[nH]4)CC2)CC3)cc(C)c1F (single isomer, unassigned) [Compound 10] | < 0.02 | > 1 |  |  | 
Cc1cc(-n2nc3c(c2-n2ccn(-c4ccc5c(cnn5C)c4F)c2=O)[C@H](C)N(C(=O)c2cn4cc([C@@H]5CCOC(C)(C)C5)ccc4c2C2(c4noc(=O)[nH]4)CC2)CC3)cc(C)c1F (single isomer, unassigned) [Compound 19] | < 0.02 | > 1 | 3000 | 572 | 26
C[C@H]1c2c(nn(-c3ccc(F)c(C4CC4)c3)c2-n2ccn(-c3ccc4c(cnn4C)c3F)c2=O)CCN1C(=O)c1cc2cc([C@@H]3CCOC(C)(C)C3)ccn2c1C1(c2noc(=O)[nH]2)CC1 (single isomer, unassigned) [Compound 73] | < 0.02 | > 1 | 10200 | 1700 | 90
C[C@H]1c2c(nn(-c3ccc(F)c(C4CC4)c3)c2-n2ccn(-c3ccc4c(cnn4C)c3F)c2=O)CCN1C(=O)c1cn2cc([C@@H]3CCOC(C)(C)C3)ccc2c1C1(c2noc(=O)[nH]2)CC1 (single isomer, unassigned) [Compound 76] | < 0.02 | > 1 | 5320 | 962 | 30
C[C@H]1c2c(nn(-c3ccc(F)c(C4CC4)c3)c2-n2ccn(-c3ccc4c(cnn4C)c3F)c2=O)CCN1C(=O)c1cn2nc([C@@H]3CCOC(C)(C)C3)ccc2c1C1(c2noc(=O)[nH]2)CC1 (single isomer, unassigned) [Compound 90] | < 0.02 | > 1 | 3340 | 1370 | 59
C[C@H]1c2c(nn(-c3ccc(F)c(C4CC4)c3)c2-n2ccn(-c3ccc4c(cnn4C)c3F)c2=O)CCN1C(=O)c1cn2cc([C@H]3CCOC(C)(C)C3)cc(F)c2c1C1(c2noc(=O)[nH]2)CC1 (single isomer, unassigned) [Compound 91] | < 0.02 | > 1 | 2660 | 738 | 22
Cc1cc(-n2nc3c(c2-n2ccn(-c4ccc5c(cnn5C)c4F)c2=O)[C@H](C)N(C(=O)c2cn4cc(-c5ccnc(C(F)(F)F)c5)ccc4c2Cc2noc(=O)[nH]2)CC3)cc(C)c1F [Compound 15, (S)-3-((2-(3-(3-(4-fluoro-1-methyl-1H-indazol-5-yl)-2-oxo-2,3-dihydro-1H-imidazol-1-yl)-2-(4-fluoro-3,5-dimethylphenyl)-4-methyl-4,5,6,7-tetrahydro-2H-pyrazolo[4,3-c]pyridine-5-carbonyl)-6-(2-(trifluoromethyl)pyridin-4-yl)indolizin-1-yl)methyl)-1,2,4-oxadiazol-5(4H)-one] | < 0.02 |  |  |  | 
Cc1cc(-n2nc3c(c2-n2ccn(-c4ccc5c(cnn5C)c4F)c2=O)CN(C(=O)c2cc4cc(C5CCOCC5)ccc4n2-c2ccccc2-c2noc(=O)[nH]2)CC3)cc(C)c1F [Compound 37, 3-(2-(2-(3-(3-(4-fluoro-1-methyl-1H-indazol-5-yl)-2-oxo-2,3-dihydro-1H-imidazol-1-yl)-2-(4-fluoro-3,5-dimethylphenyl)-4,5,6,7-tetrahydro-2H-pyrazolo[4,3-c]pyridine-5-carbonyl)-5-(tetrahydro-2H-pyran-4-yl)-1H-indol-1-yl)phenyl)-1,2,4-oxadiazol-5(4H)-one] | > 0.1 |  |  |  | 
Cn1ncc2c(F)c(-n3ccn(-c4c(-c5ccc(F)cc5)nn5c4CN(C(=O)c4cc6cc(C7CCOCC7)ccc6n4-c4ccccc4C(=O)O)CC5)c3=O)ccc21 [Compound 55, 2-(2-(3-(3-(4-fluoro-1-methyl-1H-indazol-5-yl)-2-oxo-2,3-dihydro-1H-imidazol-1-yl)-2-(4-fluorophenyl)-4,5,6,7-tetrahydropyrazolo[1,5-a]pyrazine-5-carbonyl)-5-(tetrahydro-2H-pyran-4-yl)-1H-indol-1-yl)benzoic acid] | > 0.1 |  |  |  | 
Cc1cc(-n2nc3c(c2-n2ccn(-c4ccc5c(cnn5C)c4F)c2=O)[C@H](C)N(C(=O)c2cc4cc(C5CCOCC5)ccc4n2-c2cccc(C(=O)O)c2)CC3)cc(C)c1F [Compound 56, (S)-3-(2-(3-(3-(4-fluoro-1-methyl-1H-indazol-5-yl)-2-oxo-2,3-dihydro-1H-imidazol-1-yl)-2-(4-fluoro-3,5-dimethylphenyl)-4-methyl-4,5,6,7-tetrahydro-2H-pyrazolo[4,3-c]pyridine-5-carbonyl)-5-(tetrahydro-2H-pyran-4-yl)-1H-indol-1-yl)benzoic acid] | < 0.02 |  |  |  | 
COCc1ccc(-n2ccn(-c3c4c(nn3-c3cc(C)c(F)c(C)c3)CCN(C(=O)c3cc5cc(C6CCOCC6)ccc5n3-c3ccccc3C(=O)O)[C@H]4C)c2=O)cc1 [Compound 57, (S)-2-(2-(2-(4-fluoro-3,5-dimethylphenyl)-3-(3-(4-(methoxymethyl)phenyl)-2-oxo-2,3-dihydro-1H-imidazol-1-yl)-4-methyl-4,5,6,7-tetrahydro-2H-pyrazolo[4,3-c]pyridine-5-carbonyl)-5-(tetrahydro-2H-pyran-4-yl)-1H-indol-1-yl)benzoic acid] | > 0.1 |  |  |  | 
Cc1cc(-c2ccc3c(c2)cc(C(=O)N2CCn4nc(-c5ccc(F)cc5)c(-n5ccn(-c6ccc7c(cnn7C)c6F)c5=O)c4C2)n3Cc2noc(=O)[nH]2)ccn1 [Compound 58, 3-((2-(3-(3-(4-fluoro-1-methyl-1H-indazol-5-yl)-2-oxo-2,3-dihydro-1H-imidazol-1-yl)-2-(4-fluorophenyl)-4,5,6,7-tetrahydropyrazolo[1,5-a]pyrazine-5-carbonyl)-5-(2-methylpyridin-4-yl)-1H-indol-1-yl)methyl)-1,2,4-oxadiazol-5(4H)-one] | < 0.02 |  |  |  | 
Cc1cc(-n2nc3c(c2-n2ccn(-c4ccc5c(cnn5C)c4F)c2=O)CN(C(=O)c2cc4cc(C5CCOCC5)ccc4n2-c2cccc4[nH]nnc24)CC3)cc(C)c1F [Compound 59, 1-(5-(1-(1H-benzo[d][1,2,3]triazol-4-yl)-5-(tetrahydro-2H-pyran-4-yl)-1H-indole-2-carbonyl)-2-(4-fluoro-3,5-dimethylphenyl)-4,5,6,7-tetrahydro-2H-pyrazolo[4,3-c]pyridin-3-yl)-3-(4-fluoro-1-methyl-1H-indazol-5-yl)-1,3-dihydro-2H-imidazol-2-one] | > 0.1 |  |  |  | 
